Source: patent publication US6541630B1 (priority 1997, dated 2003)

melting point [°C]	Structure (SMILES)
188 to 190	Cc1cc2ncn(C)c(=O)c2s1
320 to 322	Cc1sc2c(=O)[nH]cnc2c1Br
273	CC(=O)Nn1cnc2c(Br)csc2c1=O
159 to 162	CC(=O)On1cnc2c(Br)csc2c1=O
181 to 183	Nn1cnc2c(Br)csc2c1=O [Compound 6d, 3-Amino-7-bromo-3,4-dihydrothieno[3,2-d]pyrimidin-4-one]
301 to 304	O=c1[nH]cnc2sc(Br)cc12 [Compound 6g, 6-Bromo-3,4-dihydrothieno[2,3-d]pyrimidine-4-one]
238 to 240	O=c1[nH]cnc2cc(Br)sc12 [Compound 8a, 6-Bromo-3,4-dihydrothieno[3,2-d]pyrimidin-4-one]
